According to PubChem BioAssay AID248 (DTP/NCI, 2004):
Where “and” joins values, the source holds several entries; their conditions need not be identical. Identical values can stand only once. Inconclusive results and toxic doses are left out. Cut-off read from the data, not from the text of the source: active = T/C of 150% or more; inactive = T/C below 125%.

Tested on: L1210 leukemia ip in BDF1 mice, survival T/C
Test: NCI In Vivo Anticancer Drug Screen. Data for tumor model L1210 Leukemia (intraperitoneal) in B6D2F1 (BDF1) mice
Conditions: endpoint: mean survival time, higher = longer survival
Outline: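 Value reflects the ratio of survival in compound-treated mice to survival in vehicle-treated controls, with both groups carrying the same transplanted tumor.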

[1] = dose: 100.0 mg/kg/injection, schedule: Q04DX003 (ip), vehicle: saline
[2] = dose: 200.0 mg/kg/injection, schedule: Q04DX003 (ip), vehicle: saline
[3] = dose: 400.0 mg/kg/injection, schedule: Q04DX003 (ip), vehicle: saline
[4] = dose: 150.0 mg/kg/injection, schedule: Q01DX001 (ip), vehicle: saline
[5] = dose: 100.0 mg/kg/injection, schedule: Q01DX009 (ip), vehicle: Klucel (hydroxypropylcellulose) (HPC)
[6] = dose: 200.0 mg/kg/injection, schedule: Q01DX009 (ip), vehicle: Klucel (hydroxypropylcellulose) (HPC)
[7] = dose: 400.0 mg/kg/injection, schedule: Q01DX009 (ip), vehicle: Klucel (hydroxypropylcellulose) (HPC)
[8] = dose: 100.0 mg/kg/injection, schedule: Q04DX003 (ip), vehicle: saline with Tween-80
[9] = dose: 200.0 mg/kg/injection, schedule: Q04DX003 (ip), vehicle: saline with Tween-80
[10] = dose: 400.0 mg/kg/injection, schedule: Q04DX003 (ip), vehicle: saline with Tween-80
[11] = dose: 6.25 mg/kg/injection, schedule: Q04DX003 (ip), vehicle: saline
[12] = dose: 25.0 mg/kg/injection, schedule: Q04DX003 (ip), vehicle: saline
[13] = dose: 50.0 mg/kg/injection, schedule: Q04DX003 (ip), vehicle: saline
[14] = dose: 100.0 mg/kg/injection, schedule: Q01DX001 (ip), vehicle: saline
[15] = dose: 200.0 mg/kg/injection, schedule: Q01DX001 (ip), vehicle: saline
[16] = dose: 400.0 mg/kg/injection, schedule: Q01DX001 (ip), vehicle: saline
[17] = dose: 50.0 mg/kg/injection, schedule: Q01DX009 (ip), vehicle: saline
[18] = dose: 100.0 mg/kg/injection, schedule: Q01DX009 (ip), vehicle: saline
[19] = dose: 75.0 mg/kg/injection, schedule: Q01DX001 (ip), vehicle: saline

Measured: T/C

NC(=O)C(N)CCCN=C(N)N (stereo not given)
inactive: dose: 37.5 mg/kg/injection, schedule: Q01DX001 (ip), vehicle: Klucel (hydroxypropylcellulose) (HPC) 103 % of control | dose: 75.0 mg/kg/injection, schedule: Q01DX001 (ip), vehicle: Klucel (hydroxypropylcellulose) (HPC) 116 % of control | dose: 150.0 mg/kg/injection, schedule: Q01DX001 (ip), vehicle: Klucel (hydroxypropylcellulose) (HPC) 100 % of control

CCNC(=O)C1C2CCC(C2)C1C(=O)NCC (stereo not given)
inactive: [1] 104 % of control | [2] 87 % of control | [3] 96 % of control

Clc1ccc(CNc2ccccn2)s1
inactive: [4] 88 % of control

COc1ccc(C(=O)c2ccccc2)c(OC(=O)Nc2ccc(Cl)cc2)c1
inactive: [5] 109 % of control | [6] 105 % of control | [7] 100 % of control

NC(=O)c1ccc[n+](CC(=O)Nc2ccc(Cl)cc2)c1
inactive: [8] 101 % of control | [9] 101 % of control | [10] 95 % of control

O=C(c1ccc(O)cc1)c1c[nH]c2c(O)ccc(O)c12
inactive: dose: 25.0 mg/kg/injection, schedule: Q04DX002 (ip), vehicle: saline + alcohol 98 % of control | dose: 50.0 mg/kg/injection, schedule: Q04DX002 (ip), vehicle: saline + alcohol 91 % of control

N#CN1CC(C(=O)N2CCCCC2)C=C2c3cccc4[nH]cc(c34)CC21 (stereo not given)
inactive: dose: 4.0 mg/kg/injection, schedule: Q04DX003 (ip), vehicle: saline 96 % of control | [11] 119 % of control | dose: 8.0 mg/kg/injection, schedule: Q04DX003 (ip), vehicle: saline 95 % of control | dose: 12.5 mg/kg/injection, schedule: Q04DX003 (ip), vehicle: saline 118 % of control | dose: 16.0 mg/kg/injection, schedule: Q04DX003 (ip), vehicle: saline 86 % of control | [12] 115 % of control | [13] 90 % of control

O=C(O)C(O)C(O)C(O)C(O)CO (stereo not given)
inactive: [1] 106 % of control | [2] 96 % of control | [3] 96 % of control

COC(=O)C(Nc1ccc([N+](=O)[O-])cc1[N+](=O)[O-])C(C)OS(=O)(=O)c1ccc(C)cc1 (stereo not given)
inactive: [14] 95 % of control | [15] 93 % of control | [16] 92 % of control

Cc1c(Cl)c(C)c(Cl)c(O)c1Cl
inactive: [8] 97 % of control | [9] 96 % of control | [10] 97 % of control

CNCCN(C)Cc1ccccc1
inactive: dose: 25.0 mg/kg/injection, schedule: Q01DX009 (ip), vehicle: saline 101 % of control | [12] 106 % of control | [17] 97 % of control | [13] 98 % of control | [18] 98 % of control | [1] 98 % of control and 91 % of control

O=C(CCCl)c1ccccc1
inactive: dose: 100.0 mg/kg/injection, schedule: Q04DX002 (ip), vehicle: Klucel (hydroxypropylcellulose) (HPC) 97 % of control | dose: 200.0 mg/kg/injection, schedule: Q04DX002 (ip), vehicle: Klucel (hydroxypropylcellulose) (HPC) 94 % of control

Cc1ccc([I+]c2ccc(C)cc2C)c(C)c1
inactive: dose: 0.25 mg/kg/injection, schedule: Q01DX015 (ip), vehicle: saline 96 % of control | dose: 0.5 mg/kg/injection, schedule: Q01DX015 (ip), vehicle: saline 96 % of control | dose: 1.0 mg/kg/injection, schedule: Q01DX015 (ip), vehicle: saline 97 % of control | dose: 1.56 mg/kg/injection, schedule: Q01DX009 (ip), vehicle: saline with Tween-80 112 % of control | dose: 1.56 mg/kg/injection, schedule: Q04DX003 (ip), vehicle: saline 95 % of control | dose: 2.0 mg/kg/injection, schedule: Q01DX015 (ip), vehicle: saline 97 % of control | dose: 3.12 mg/kg/injection, schedule: Q01DX009 (ip), vehicle: saline with Tween-80 119 % of control | dose: 3.12 mg/kg/injection, schedule: Q04DX003 (ip), vehicle: saline 91 % of control | dose: 6.25 mg/kg/injection, schedule: Q01DX009 (ip), vehicle: saline with Tween-80 110 % of control | [11] 95 % of control | dose: 12.5 mg/kg/injection, schedule: Q01DX001 (ip), vehicle: saline 94 % of control | dose: 25.0 mg/kg/injection, schedule: Q01DX001 (ip), vehicle: saline 100 % of control

Cn1ccc[n+]1C
inactive: [14] 93 % of control | [15] 101 % of control | [16] 92 % of control

CCCCCC[n+]1ccc(C#N)cc1
inactive: [19] 101 % of control

O=S(=O)(CC(Br)c1ccccc1)c1ccccc1 (stereo not given)
inactive: [18] 92 % of control | [1] 101 % of control | dose: 200.0 mg/kg/injection, schedule: Q01DX009 (ip), vehicle: saline 95 % of control | [2] 104 % of control | dose: 400.0 mg/kg/injection, schedule: Q01DX009 (ip), vehicle: saline 94 % of control | [3] 97 % of control

Cc1cc(Cl)c2ccccc2n1
inactive: dose: 37.5 mg/kg/injection, schedule: Q04DX003 (ip), vehicle: saline 103 % of control | dose: 75.0 mg/kg/injection, schedule: Q01DX001 (ip), vehicle: other 108 % of control | dose: 75.0 mg/kg/injection, schedule: Q04DX003 (ip), vehicle: saline 95 % of control

O=C(CCl)NCc1cnccn1
inactive: [17] 95 % of control | [18] 107 % of control | [1] 98 % of control | [2] 104 % of control

CC1(C)OC2C3CC(C2O1)n1cnc2c(N)nc[n+](c21)C3 (stereo not given)
inactive: [19] 120 % of control | [4] 101 % of control | dose: 300.0 mg/kg/injection, schedule: Q01DX001 (ip), vehicle: saline 106 % of control

O=C1NC(=O)C([n+]2ccccc2)=C1[O-]
inactive: [12] 110 % of control | [13] 110 % of control | [1] 94 % of control and 100 % of control | [2] 96 % of control

CNc1nc(SCc2ccc(F)cc2)ncc1C
inactive: dose: 25.0 mg/kg/injection, schedule: Q01DX Z (ip), vehicle: methylcellulose (MC) 96 % of control | dose: 50.0 mg/kg/injection, schedule: Q01DX Z (ip), vehicle: methylcellulose (MC) 103 % of control

O=C1c2ccccc2C(=O)N1OCCCBr
inactive: dose: 50.0 mg/kg/injection, schedule: Q01DX001 (ip), vehicle: saline 96 % of control | [14] 102 % of control | [15] 102 % of control | [16] 102 % of control

C=C=CC(C=O)(CC)CCCC (stereo not given)
inactive: dose: 50.0 mg/kg/injection, schedule: Q01DX009 (ip), vehicle: saline with Tween-80 91 % of control | dose: 100.0 mg/kg/injection, schedule: Q01DX009 (ip), vehicle: saline with Tween-80 94 % of control | dose: 200.0 mg/kg/injection, schedule: Q01DX009 (ip), vehicle: saline with Tween-80 98 % of control

ClC1(c2ccccc2)c2ccc(Br)cc2-c2cc(Br)ccc21
inactive: [5] 103 % of control | dose: 100.0 mg/kg/injection, schedule: Q04DX003 (ip), vehicle: Klucel (hydroxypropylcellulose) (HPC) 104 % of control | [6] 100 % of control | dose: 200.0 mg/kg/injection, schedule: Q04DX003 (ip), vehicle: Klucel (hydroxypropylcellulose) (HPC) 107 % of control | [7] 108 % of control | dose: 400.0 mg/kg/injection, schedule: Q04DX003 (ip), vehicle: Klucel (hydroxypropylcellulose) (HPC) 94 % of control
